Laboratory results as given in patent publication US20240358017A1, “SPIDER WEB ERADICATION AND SPIDER REPELLANT COMPOUND AND METHODS OF USE” (DALRAY, LLC., priority 2023, published 2024).

Test system: spider web
Assay: web eradication / degradation of spider webs by the formulations
Design: species or system spiders
Details: comparison among the presented formulations; research by the inventors to-date
Excerpt: As to the organic acid components of the above formulations, the chemical reaction for web degradation is exemplified by the following: As mentioned, the pH of compositions within the present invention(s) is an important feature of efficacy. […] As compositions of the present invention(s) are fabricated, the constituencies should be adjusted, as needed, to achieve end products of such acidity. Use of the formulations of the present invention is straight forward. In the simplest form, the solutions can be applied by a simple hand-pump garden sprayer. More pressurized, long-reach delivery may be achieved through various motorized pump systems as are readily available in the marketplace. After observed degradation of the target webs, the resulting “clumps” of digested webs may be simply rinsed from any surface with water.

Question: With Lauramidopropyl Betaine as the substance, how does the “efficacy of web eradication (web degradation)” value read?
Answer: effectively equivalent performance as Cocamipropyl Betaine
